Results reported in US20040106626A1, “6-Membered unsaturated heterocyclic compounds useful for selective inhibition of the coagulation cascade” (Pharmacia Corporation, priority 2001, published 2004).
pIC50: −log10 of the molar value.

What was measured:
Type in all cases: biochemical
[1] = target: T1, recombinant soluble tissue factor and recombinant human factor VIIa (TF-VIIa) (Homo sapiens, UniProt P08709); experiment: TF-VIIa assay (chromogenic substrate hydrolysis); details: reported only as less than or greater than 0.1 uM
T1 construct: conversion of coagulation factor VII to VIIa by factor Xa; purchased American Diagnostica, Greenwich CT; host or cells: soluble TF made in house in E. coli
T1 sequence (P08709 213-466 limits assumed): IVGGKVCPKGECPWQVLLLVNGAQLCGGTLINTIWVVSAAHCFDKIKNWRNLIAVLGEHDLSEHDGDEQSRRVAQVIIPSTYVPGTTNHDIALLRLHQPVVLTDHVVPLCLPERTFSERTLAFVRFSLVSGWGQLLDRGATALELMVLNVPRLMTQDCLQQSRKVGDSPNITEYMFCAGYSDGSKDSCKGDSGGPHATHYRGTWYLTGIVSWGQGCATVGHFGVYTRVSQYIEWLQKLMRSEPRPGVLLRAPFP
T1 sequence (P08709 61-212 limits assumed): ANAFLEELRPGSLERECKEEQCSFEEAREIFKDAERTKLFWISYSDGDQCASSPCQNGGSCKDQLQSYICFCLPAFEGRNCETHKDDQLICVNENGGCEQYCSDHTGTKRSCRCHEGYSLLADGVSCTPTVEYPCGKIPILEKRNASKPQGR
T1 sequence (P13726 33-251 partner limits assumed): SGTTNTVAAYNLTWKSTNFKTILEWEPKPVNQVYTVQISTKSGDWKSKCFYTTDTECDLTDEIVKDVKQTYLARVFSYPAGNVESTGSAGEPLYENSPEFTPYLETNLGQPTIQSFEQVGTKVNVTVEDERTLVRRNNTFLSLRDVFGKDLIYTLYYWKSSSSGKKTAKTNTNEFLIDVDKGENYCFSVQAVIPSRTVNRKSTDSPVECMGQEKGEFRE
Summary of the method: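 100 nM soluble tissue factor and 2 nM recombinant human factor VIIa added to 0.4 mM N-methylsulfonyl-D-phe-gly-arg-p-nitroaniline with inhibitor in 50 mM Tris-HCl pH 8.0, 5 mM CaCl2, 100 mM NaCl, 0.1% BSA. Percent inhibition from OD405 versus control.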

Human thrombin = target: T2, Human thrombin (Homo sapiens, UniProt P00734); experiment: Thrombin assay (chromogenic substrate); details: reported only as less than or greater than 30 uM; read-out: Thrombin (II) IC50
T2 construct: converts prothrombin (II) to thrombin (IIa); purchased Calbiochem, La Jolla, Calif
Summary of the method: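 Chromogenic assay with p-nitroaniline-releasing substrate; thrombin activity read as OD405 nm. Percent inhibition calculated from experimental versus control absorbance.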

[2] = test system: Normal human pooled plasma; experiment: Prothrombin time (PT) clotting assay; details: concentration at which prothrombin time is prolonged by 2x normal, reported as less than or greater than 50 uM
Summary of the method: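 Normal human pooled plasma incubated with 100 uM compound or saline, then thromboplastin (human tissue factor) added and clotting time recorded in a coagulation machine. Compounds exceeding 3× normal PT (11.0 s) are titrated to find the concentration doubling PT.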

Human factor Xa = target: T3, Human factor Xa (Homo sapiens, UniProt P00742); experiment: Xa assay (chromogenic substrate S-2765); details: reported only as less than or greater than 30 uM; read-out: Factor Xa (II) IC50
T3 construct: purchased Enzyme Research Laboratories, South Bend Ind
T3 sequence (P00742 235-488 limits assumed): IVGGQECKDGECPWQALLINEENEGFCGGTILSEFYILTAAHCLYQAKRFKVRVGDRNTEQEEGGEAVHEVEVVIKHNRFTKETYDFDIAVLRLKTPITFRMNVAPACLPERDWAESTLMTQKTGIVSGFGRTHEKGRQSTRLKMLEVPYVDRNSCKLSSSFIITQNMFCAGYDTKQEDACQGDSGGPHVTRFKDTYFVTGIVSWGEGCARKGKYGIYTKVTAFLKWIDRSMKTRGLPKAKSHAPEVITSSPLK
T3 sequence (P00742 41-179 limits assumed): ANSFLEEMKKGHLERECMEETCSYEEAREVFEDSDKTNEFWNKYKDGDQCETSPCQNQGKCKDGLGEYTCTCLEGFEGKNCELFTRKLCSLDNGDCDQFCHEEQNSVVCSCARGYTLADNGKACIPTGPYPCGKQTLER
Summary of the method: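 Human factor Xa (0.3 nM) was incubated with inhibitor and 0.15 mM S-2765 in 50 mM Tris-HCl pH 8.0, 100 mM NaCl, 0.1% BSA. After 60 min at RT, p-nitroaniline release was read at 405 nm after background subtraction. Percent inhibition was calculated against uninhibited control.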

Row | SMILES | pIC50 [1] | pIC50 (Human thrombin) | PT (Prothrombin time) 2xPT [2] [µM] | pIC50 (Human factor Xa)
1 | CCCC(=O)Nc1cc(N)cc(-c2cnc(NC(C)C)c(=O)n2CC(=O)NCc2ccc(C(=N)N)cc2)c1.O=C(O)C(F)(F)F.O=C(O)C(F)(F)F [Example 130] | > 7.00 | > 4.52 | <50.0 | < 4.52
2 | CCC(C)C(=O)Nc1cc(N)cc(-c2cnc(NC(C)C)c(=O)n2CC(=O)NCc2ccc(C(=N)N)cc2)c1.O=C(O)C(F)(F)F.O=C(O)C(F)(F)F (stereo not shown) [Example 131] | > 7.00 | > 4.52 | <50.0 | < 4.52
3 | CC(C)Nc1ncc(-c2cc(N)cc(NC(=O)CC(C)(C)C)c2)n(CC(=O)NCc2ccc(C(=N)N)cc2)c1=O.O=C(O)C(F)(F)F.O=C(O)C(F)(F)F [Example 133] | > 7.00 | > 4.52 | <50.0 | < 4.52
4 | CCC(CC)C(=O)Nc1cc(N)cc(-c2cnc(NC(C)C)c(=O)n2CC(=O)NCc2ccc(C(=N)N)cc2)c1.O=C(O)C(F)(F)F.O=C(O)C(F)(F)F [Example 134] | > 7.00 | > 4.52 | <50.0 | < 4.52
5 | CC(C)CCC(=O)Nc1cc(N)cc(-c2cnc(NC(C)C)c(=O)n2CC(=O)NCc2ccc(C(=N)N)cc2)c1.O=C(O)C(F)(F)F.O=C(O)C(F)(F)F [Example 135] | > 7.00 | > 4.52 | <50.0 | < 4.52
6 | CCCC(CCC)C(=O)Nc1cc(N)cc(-c2cnc(NC(C)C)c(=O)n2CC(=O)NCc2ccc(C(=N)N)cc2)c1.O=C(O)C(F)(F)F.O=C(O)C(F)(F)F [Example 136] | > 7.00 | > 4.52 | <50.0 | < 4.52
7 | CCCCC(CC)C(=O)Nc1cc(N)cc(-c2cnc(NC(C)C)c(=O)n2CC(=O)NCc2ccc(C(=N)N)cc2)c1.O=C(O)C(F)(F)F.O=C(O)C(F)(F)F (stereo not shown) [Example 137] | > 7.00 | > 4.52 | <50.0 | < 4.52
8 | CC(CC(=O)Nc1cc(N)cc(-c2cnc(NC(C)C)c(=O)n2CC(=O)NCc2ccc(C(=N)N)cc2)c1)CC(C)(C)C.O=C(O)C(F)(F)F.O=C(O)C(F)(F)F (stereo not shown) [Example 139] | > 7.00 | > 4.52 | <50.0 | < 4.52
9 | CC(C)Nc1ncc(-c2cc(N)cc(NC(=O)[C@H]3C[C@@H]3c3ccccc3)c2)n(CC(=O)NCc2ccc(C(=N)N)cc2)c1=O.O=C(O)C(F)(F)F.O=C(O)C(F)(F)F [Example 140] | > 7.00 | > 4.52 | <50.0 | < 4.52
10 | CC(C)Nc1ncc(-c2cc(N)cc(NC(=O)CC3CCCC3)c2)n(CC(=O)NCc2ccc(C(=N)N)cc2)c1=O.O=C(O)C(F)(F)F.O=C(O)C(F)(F)F [Example 141] | > 7.00 | > 4.52 | <50.0 | < 4.52
11 | CC(C)Nc1ncc(-c2cc(N)cc(NC(=O)c3ccc(N(C)C)cc3)c2)n(CC(=O)NCc2ccc(C(=N)N)cc2)c1=O.O=C(O)C(F)(F)F.O=C(O)C(F)(F)F [Example 142] | > 7.00 | < 4.52 | <50.0 | < 4.52
12 | CCC(C(=O)Nc1cc(N)cc(-c2cnc(NC(C)C)c(=O)n2CC(=O)NCc2ccc(C(=N)N)cc2)c1)c1ccccc1.O=C(O)C(F)(F)F.O=C(O)C(F)(F)F (stereo not shown) [Example 143] | > 7.00 | > 4.52 | <50.0 | < 4.52
13 | CC(C)Nc1ncc(-c2cc(N)cc(NC(=O)C3CC3)c2)n(CC(=O)NCc2ccc(C(=N)N)cc2)c1=O.O=C(O)C(F)(F)F.O=C(O)C(F)(F)F [Example 144] | > 7.00 | < 4.52 | <50.0 | < 4.52
14 | CC(C)Nc1ncc(-c2cc(N)cc(C(=O)NCc3ccccc3)c2)n(CC(=O)NCc2ccc(C(=N)N)c(O)c2)c1=O.O=C(O)C(F)(F)F [Example 161, 3-amino-5-[1-[2-({4-[amino(imino)methyl]-3-hydroxybenzyl}amino)-2-oxoethyl]-5-(isopropylamino)-6-oxo-1,6-dihydropyrazin-2-yl]-N-benzylbenzamide] | > 7.00 | < 4.52 | <50.0 | < 4.52
15 | CC(C)Nc1ncc(-c2cc(N)cc(C(=O)NCc3ccc(F)cc3)c2)n(CC(=O)NCc2ccc(C(=N)N)c(O)c2)c1=O.O=C(O)C(F)(F)F [Example 162, 3-amino-5-[1-[2-({4-[amino(imino)methyl]-3-hydroxybenzyl}amino)-2-oxoethyl]-5-(isopropylamino)-6-oxo-1,6-dihydropyrazin-2-yl]-N-(4-fluorobenzyl) benzamide] | > 7.00 | < 4.52 | <50.0 | < 4.52
16 | CC[C@H](C)NC(=O)c1cc(N)cc(-c2cnc(NC(C)C)c(=O)n2CC(=O)NCc2c(F)c(O)c(C(=N)N)c(F)c2F)c1.Cl.Cl [Example 164] | > 7.00 | < 4.52 | <50.0 | < 4.52
17 | COC(=O)CCNC(=O)c1cc(N)cc(-c2cnc(NC(C)C)c(=O)n2CC(=O)NCc2ccc(C(=N)N)cc2)c1 [Example 165] | > 7.00 | < 4.52 | <50.0 | < 4.52
18 | CC(C)Nc1ncc(-c2cc(N)cc(C(=O)NCc3cccc(O)c3)c2)n(CC(=O)NCc2ccc(C(=N)N)cc2)c1=O [Example 166] | > 7.00 | < 4.52 | <50.0 | < 4.52
19 | CC[C@H](C)NC(=O)c1cc(N)cc(-c2cnc(NC(C)C)c(=O)n2CC(=O)NCc2ccc(C(=N)N)cc2O)c1.O=C(O)C(F)(F)F [Example 167, 3-amino-5-[1-[2-({4-[amino(imino)methyl]-2-hydroxybenzyl}amino)-2-oxoethyl]-5-(isopropylamino)-6-oxo-1,6-dihydropyrazin-2-yl]-N-[(1S)-1-methylpropyl]benzamide] | > 7.00 | > 4.52 | <50.0 | < 4.52
20 | COC(=O)c1ccc(CNC(=O)c2cc(N)cc(-c3cnc(NC(C)C)c(=O)n3CC(=O)NCc3ccc(C(=N)N)cc3)c2)cc1.O=C(O)C(F)(F)F [Example 169] | > 7.00 | > 4.52 | <50.0 | < 4.52
21 | Cc1cc(N)cc(-c2cnc(NC(C)C)c(=O)n2CC(=O)NCc2ccc(C(=N)N)cc2)c1.Cl.Cl [Example 170] | > 7.00 | < 4.52 | <50.0 | < 4.52
22 | CC(C)Nc1ncc(-c2cc(N)cc(C(=O)NCc3ccc(C(=O)O)cc3)c2)n(CC(=O)NCc2ccc(C(=N)N)cc2)c1=O.O=C(O)C(F)(F)F.O=C(O)C(F)(F)F [Example 171] | > 7.00 | < 4.52 | <50.0 | < 4.52
23 | CC(C)Nc1ncc(-c2cc(N)cc(C(=O)NCCC(=O)O)c2)n(CC(=O)NCc2ccc(C(=N)N)cc2)c1=O.O=C(O)C(F)(F)F.O=C(O)C(F)(F)F [Example 172] | > 7.00 | < 4.52 | <50.0 | < 4.52
24 | COc1ccc(CNC(=O)c2cc(N)cc(-c3cnc(NC(C)C)c(=O)n3CC(=O)NCc3ccc(C(=N)N)cc3)c2)cc1.O=C(O)C(F)(F)F.O=C(O)C(F)(F)F [Example 174] | > 7.00 | < 4.52 | <50.0 | < 4.52
25 | CC(=O)Oc1cc(N)cc(-c2cnc(NC(C)C)c(=O)n2CC(=O)NCc2ccc(C(=N)N)cc2)c1.O=C(O)C(F)(F)F [Example 175] | > 7.00 | < 4.52 | <50.0 | < 4.52
26 | CC(C)Nc1ncc(-c2cc(N)cc(C(=O)NCc3ccc(O)cc3)c2)n(CC(=O)NCc2ccc(C(=N)N)cc2)c1=O.O=C(O)C(F)(F)F [Example 176] | > 7.00 | < 4.52 | <50.0 | < 4.52
27 | COc1cccc(CNC(=O)c2cc(N)cc(-c3cnc(NC(C)C)c(=O)n3CC(=O)NCc3ccc(C(=N)N)cc3)c2)c1.O=C(O)C(F)(F)F [Example 177] | > 7.00 | < 4.52 | <50.0 | < 4.52
28 | N=C(N)c1ccc(CNC(=O)Cn2c(-c3cc(N)cc(O)c3)cnc(NC3CC3)c2=O)cc1.O=C(O)C(F)(F)F.O=C(O)C(F)(F)F [Example 179] | > 7.00 | < 4.52 | <50.0 | < 4.52
